Reference: US6699498B1, “Transdermal therapeutic systems having improved stability and their production” (LTS Lohmann Therapie-Systeme AG, priority 1999, dated 2004)

Experiments:
[1] = Peroxide number (PON) of raw materials; type: physicochemical; conditions: raw material following approximately 6 months' storage at room temperature
From the text: The peroxide content is commonly expressed by means of the so-called peroxide number PON, which indicates the amount of milliequivalents of active oxygen per kg of substance. There are various methods of determining the peroxide number. The most customary is to react a defined amount of substance in a chloroform/glacial acetic acid solution with an excess of iodide ions and then to back-titrate the resultant iodine using sodium thiosulfate. A less common method, which is restricted to aqueous solutions, is to react the substance with titanium(IV) ions and to measure the resultant peroxo complex by photometry. A semiquantitative test for peroxides which is particularly easy to implement is carried out using commercial […].
The table below lists the measured peroxide numbers of some exemplary substances used to produce reservoir and matrix systems, following approximately 6 months' storage at room temperature. The peroxide numbers were measured by the two first-mentioned methods.

[2] = Test reaction of active substance with t-butyl hydroperoxide under reflux; type: physicochemical; conditions: chloroform; for Identified degradation product in reaction with t-butyl hydroperoxide: reflux 6 hours
From the text: To determine the sensitivity of the active substance to oxidation reactions with hydroperoxides, an easily implemented test reaction has been developed. For this purpose, the active substance in chloroform or another appropriate solvent is reacted with t-butyl hydroperoxide under reflux. If oxidative degradation products of the active substance are found in this reaction mixture, they can be attributed to the reaction with hydroperoxide. Often, degradation of the active substance is also evident very simply from a discoloration of the test solution. The practical conclusion to be drawn from a positive outcome of the test reaction is that when formulating a transdermal system using this active substance the auxiliaries used should include only those which are substantially free from hydroperoxides.
80 ml of chloroform and 1 g of t-butyl hydroperoxide are added to 0.5 g of the active substance and this system is heated under reflux with stirring for 6 hours. The reaction mixture is subsequently assessed for its color and analyzed using an appropriate chromatographic method for degradation products formed.

Structure (SMILES) | PON (peroxide number) [1] | Identified degradation product in reaction with t-butyl hydroperoxide [2] | other results
C=C(C)[C@H]1CC=C(C)CC1 [Limonene] | 15 milliequivalents of active oxygen per kg of substance | – | –
CCOCCOCCO [Diethylene glycol monoethyl ether] | 120 milliequivalents of active oxygen per kg of substance | – | –
CCCN(CCc1cccs1)[C@H]1CCc2c(O)cccc2C1 [N-0923 base] | – | 1,2-dihydronaphth-8-ol | –
CCCCCCCC/C=C\CCCCCCCCO [Oleyl alcohol] | 50 milliequivalents of active oxygen per kg of substance | – | –
CCCN1C[C@H](CSC)C[C@@H]2c3cccc4[nH]cc(c34)C[C@H]21 [pergolide] | – | Oxidation of the sulfide sulfur to the sulfoxide | –
Cc1cc2c(OCC(CNC(C)(C)C)OC(=O)c3ccccc3)cccc2[nH]1 (stereo not drawn) [bopindolol] | – | – | Color of reaction mixture with t-butyl hydroperoxide ([2]; reflux): yellowish discoloration which then becomes strongly brown
